According to US20240424019A1, “SHP1 MODIFIED DENDRITIC CELLS AND EXTRACELLULAR VESICLES DERIVED THEREFROM AND ASSOCIATED METHODS” (BOARD OF REGENTS, THE UNIVERSITY OF TEXAS SYSTEM, priority 2021, published 2024):

Key:
SHP1 = molecular target: T1, SHP1 (Mus musculus, UniProt P29351); test: SHP1 tyrosine phosphatase activity in LPS-activated BMDCs; assay type: cell-based; details: VitE 50 μg/ml vs vehicle, LPS 100 ng/ml stimulation
T1 construct: We immunoprecipitated SHP1 from the vehicle or VitE-treated DC2.4 cells or BMDCs with a monoclonal SHP1 antibody; endogenous in cells
T1 sequence (P29351 whole entry): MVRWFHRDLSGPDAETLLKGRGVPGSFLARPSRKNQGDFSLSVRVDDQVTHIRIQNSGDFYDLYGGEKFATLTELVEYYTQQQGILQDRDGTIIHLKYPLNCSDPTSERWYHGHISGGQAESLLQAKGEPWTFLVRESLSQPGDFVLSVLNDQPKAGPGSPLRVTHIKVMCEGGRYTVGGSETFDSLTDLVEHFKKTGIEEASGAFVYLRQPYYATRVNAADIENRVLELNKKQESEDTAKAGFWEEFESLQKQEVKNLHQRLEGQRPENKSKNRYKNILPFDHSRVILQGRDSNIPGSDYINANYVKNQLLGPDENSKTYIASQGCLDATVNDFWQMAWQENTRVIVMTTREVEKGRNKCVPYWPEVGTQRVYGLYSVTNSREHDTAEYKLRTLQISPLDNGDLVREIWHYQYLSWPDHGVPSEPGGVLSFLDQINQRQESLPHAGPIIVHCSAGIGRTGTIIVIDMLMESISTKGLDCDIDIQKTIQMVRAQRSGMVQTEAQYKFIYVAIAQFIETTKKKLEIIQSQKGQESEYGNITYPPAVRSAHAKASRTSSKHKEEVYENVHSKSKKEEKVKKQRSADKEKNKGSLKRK
From the text: FIG. 3A: […] FIG. 3B: t-SNEs by CyTOF and quantification comparing the intensity of […]-SHP1 in TADCs from the vehicle-or VitE-treated EMT6 tumors at day 15 post-implantation. FIG. 3C: Top, SHP1 knockdown in BMDCs was effective. Bottom, CFSE-dilution analysis of OT-1 T cells co-cultured with OVA protein-pulsed BMDCs (ratio 10:1) with knockdown of SHP1 by […]6 versus siCtrl (n=3). Right, quantification of OT-1 T-cell numbers under the indicated condition. FIG. 3D: The binding of VitE to purified SHP1 is analyzed by microscale thermophoresis (MST) binding assay. […] FIG. 3E: Relative tyrosine phosphatase activity of SHP1 immunoprecipitated from LPS (100 ng/ml)-activated DC2.4 cells in the presence of indicated doses of VitE (mean of triplicates). FIG. 3F: SHP1 tyrosine phosphatase activity in LPS (100 ng/ml)-activated BMDCs (n=6) treated with vehicle-or VitE (50 μg/ml). Error bars, s.e.m. ns, no significant. *P<0.05, **P<0.01. ***P<0.001, ****P<0.0001. Bone marrow (BM) was harvested from C57BL/6J, BALB/Cj mice by flushing femurs, tibias, and humeri with DCs culture medium. […] We assessed the phosphatase activity of SHP1 by using the RediPlate 96 EnzChek Tyrosine Phosphatase Assay Kit (ThermoFisher). […] We placed beads into RediPlate wells and incubated them for 30 min at 25° C. before reading them for fluorescence. […]

human MoDCs = test: DC activation markers on human MoDCs by flow cytometry; assay type: cell-based
From the text: Human leukocyte concentrate (buffy coat) was collected from healthy blood donor volunteers by MD Anderson Blood Donor Center. Written informed consent was obtained from all participating blood donors and the use of anonymized leftover specimens for scientific purposes was approved by the Ethics Committee of the MD Anderson Cancer Center. For the generation of monocyte-derived dendritic cells (MoDCs), peripheral blood of healthy individuals was applied to a Ficoll gradient (BD), and mononuclear cells were freshly isolated and cultured in the dish in a humidified incubator for 1 hour to let monocytes adhere. After removing the medium with non-adherent cells, the adherent monocytes were collected through vigorous pipetting. […]
We assessed the expression of co-stimulatory molecules on human MoDCs treated with indicated dietary components and nutritional supplements including VitE (50 μg/ml). […] The mean fluorescence intensity (MFI) of each molecule was normalized to the MFI of the vehicle-treated group measured by flow cytometry. We then quantitated DC activation markers CD40, CD86, and HLA-DR on human MoDCs treated with vehicle or VitE (50 μg/ml) for 48 h in the presence of LPS (100 ng/ml), as calculated by relative mean fluorescence intensity (MFI) compared to controls.

H-2Kb-SIINFEKL = test: Antigen cross-presentation: H-2Kb-SIINFEKL on OVA-loaded DCs by flow cytometry; assay type: cell-based, mouse
From the text: FIG. 4A: Flow cytometric analysis and quantification of H-2Kb-SIINFEKL in OVA-loaded sgCtrl or sgPtpn6-DC2.4 cells without or with TCM treatment (n=3). FIG. 4B: FCM analysis and quantification of H-2K^b-SIINFEKL in the vehicle or VitE-treated BMDCs with or without TCM treatment (n=5). Error bars, s.e.m. ns, no significant. *P<0.05, **P<0.01. ***P<0.001. ****P<0.0001.
The most critical function of DCs is the cross-presentation of tumor antigens to T-cells (Guermonprez et al., 2002). We assessed the membrane MHC-I complexes that were loaded with intracellularly processed OVA-derived peptide (H-2Kb-SIINFEKL) on OVA-loaded DCs with VitE-treatment. […] Therefore, VitE administration enhances the activation and antigen cross-presentation function of DCs to provoke antigen-specific antitumor T-cell immunity. We quantified H-2Kb-SIINFEKL in the vehicle-or VitE-treated sgCtrl-DC2.4 or sgPtpn6-DC2.4 (n=3). […] Thus. SHP1 inhibition in DCs by VitE treatment or Ptpn6 knockout enhances antigen cross-presentation that boosts CD8+ T-cell antitumor immunity.

Compound: Cc1c(C)c2c(c(C)c1O)CC[C@@](C)(CCC[C@H](C)CCC[C@H](C)CCCC(C)C)O2 [VitE, D-α-Tocopherol]
- SHP1 activity in BMDCs (SHP1): marked reduction of SHP1 function
- expression of DC activation markers (relative MFI) (human MoDCs; VitE 50 μg/ml 48 h, LPS 100 ng/ml): significantly increased expression of DC activation markers CD40, CD86, HLA-DR
- DC activation compared with other common nutritional supplements (human MoDCs; VitE 50 μg/ml vs VitC, VitD, VitB, VitB2, VitB12, DHA, 48 h then LPS 24 h): most effectively activated DCs
- H-2Kb-SIINFEKL molecules on sgPtpn6-DC2.4 cells (H-2Kb-SIINFEKL; VitE treatment of SHP1-knockout cells): did not further increase H-2Kb-SIINFEKL molecules
- H-2Kb-SIINFEKL molecules on DC2.4 cells (H-2Kb-SIINFEKL; vs vehicle-treated sgCtrl-DC2.4 cells): significantly increased H-2Kb-SIINFEKL molecules on DC2.4 cells
